{
  "source": "patent US8575183B2",
  "about": "“Heterocyclic compounds and their uses” (priority 2010, dated 2013)",
  "note": "“And” between values parts separate entries of the source, which are not always exact repeats. Equal entries are not always repeated.",
  "data": [
    {"target": "T1, PI3k δ (Homo sapiens, UniProt O00329)", "T1 construct": "Full length p110 subunits of PI3k α, β and δ; polyHis (N); made in house; host or cells: Sf9 insect cells (baculovirus)", "T1 sequence (O00329 whole entry)": "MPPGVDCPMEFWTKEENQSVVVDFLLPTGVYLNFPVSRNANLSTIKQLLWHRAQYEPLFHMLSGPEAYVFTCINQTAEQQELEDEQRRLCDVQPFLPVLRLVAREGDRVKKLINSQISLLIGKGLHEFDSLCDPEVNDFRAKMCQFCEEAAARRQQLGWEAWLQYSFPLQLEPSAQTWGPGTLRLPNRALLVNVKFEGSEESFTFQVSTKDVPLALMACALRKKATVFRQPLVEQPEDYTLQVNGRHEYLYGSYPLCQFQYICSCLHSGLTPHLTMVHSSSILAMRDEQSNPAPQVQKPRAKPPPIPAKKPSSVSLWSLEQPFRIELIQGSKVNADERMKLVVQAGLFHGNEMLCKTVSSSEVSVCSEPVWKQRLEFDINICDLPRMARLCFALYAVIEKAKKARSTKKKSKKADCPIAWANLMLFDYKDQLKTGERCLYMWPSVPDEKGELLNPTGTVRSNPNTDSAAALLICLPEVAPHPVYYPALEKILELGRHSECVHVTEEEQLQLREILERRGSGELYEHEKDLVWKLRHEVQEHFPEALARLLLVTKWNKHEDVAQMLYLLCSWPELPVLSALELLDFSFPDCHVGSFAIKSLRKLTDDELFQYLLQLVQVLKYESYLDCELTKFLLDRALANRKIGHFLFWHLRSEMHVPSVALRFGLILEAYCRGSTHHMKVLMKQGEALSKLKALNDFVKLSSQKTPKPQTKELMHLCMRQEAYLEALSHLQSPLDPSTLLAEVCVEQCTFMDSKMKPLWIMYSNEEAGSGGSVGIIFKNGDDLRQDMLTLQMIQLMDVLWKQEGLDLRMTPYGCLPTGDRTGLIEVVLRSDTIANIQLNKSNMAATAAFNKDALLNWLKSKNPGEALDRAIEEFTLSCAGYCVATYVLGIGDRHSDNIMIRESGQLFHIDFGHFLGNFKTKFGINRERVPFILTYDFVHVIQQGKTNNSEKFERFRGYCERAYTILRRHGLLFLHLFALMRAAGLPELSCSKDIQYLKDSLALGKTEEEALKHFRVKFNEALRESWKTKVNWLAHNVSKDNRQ", "T1 sequence (P27986 whole entry partner)": "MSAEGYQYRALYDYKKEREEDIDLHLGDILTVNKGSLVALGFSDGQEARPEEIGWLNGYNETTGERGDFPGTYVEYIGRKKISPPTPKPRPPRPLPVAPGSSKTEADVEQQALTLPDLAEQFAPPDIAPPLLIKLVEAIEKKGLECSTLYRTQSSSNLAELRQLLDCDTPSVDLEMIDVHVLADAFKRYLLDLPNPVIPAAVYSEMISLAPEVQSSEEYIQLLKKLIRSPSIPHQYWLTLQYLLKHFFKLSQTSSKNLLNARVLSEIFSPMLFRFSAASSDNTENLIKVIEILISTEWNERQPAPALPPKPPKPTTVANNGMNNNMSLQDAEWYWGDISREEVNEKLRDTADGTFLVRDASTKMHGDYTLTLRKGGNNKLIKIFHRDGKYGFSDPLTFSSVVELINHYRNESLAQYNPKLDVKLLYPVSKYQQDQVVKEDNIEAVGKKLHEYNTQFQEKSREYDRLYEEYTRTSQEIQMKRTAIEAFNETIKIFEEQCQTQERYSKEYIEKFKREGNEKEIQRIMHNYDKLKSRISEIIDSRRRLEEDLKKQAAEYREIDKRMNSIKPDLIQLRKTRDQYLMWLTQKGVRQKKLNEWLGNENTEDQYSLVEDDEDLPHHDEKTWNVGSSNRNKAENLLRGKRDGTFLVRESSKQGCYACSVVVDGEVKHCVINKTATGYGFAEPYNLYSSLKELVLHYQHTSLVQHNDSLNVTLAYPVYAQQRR", "experiment": "biochemical", "assay_type": "biochemical", "details": "read-out: PI3k δ Ki", "description": "Full length p110 subunits of PI3k α, β and δ, N-terminally labeled with polyHis tag, were coexpressed with p85 with Baculo virus expression vectors in sf9 insect cells. P110/p85 heterodimers were purified by sequential Ni-NTA, Q-HP, Superdex-100 chromatography. Purified α, β and δ isozymes were stored at −20° C. in 20 mM Tris, pH 8, 0.2M NaCl, 50% glycerol, 5 mM DTT, 2 mM Na cholate. […] The γ isozyme was purified by sequential Ni-NTA, Superdex-200, Q-HP chromatography. The γ isozyme was stored frozen at −80° C. in NaH2PO4, pH 8, 0.2M NaCl, 1% ethylene glycol, 2 mM β-mercaptoethanol.\nPhospatidyl inositol phosphoacceptor, Ptdlns(4,5)P2 P4508, was from Echelon Biosciences. […] Test compounds were dissolved in dimethyl sulfoxide and diluted with three-fold serial dilutions. The compound in DMSO (1 μL) was added per test well, and the inhibition relative to reactions containing no compound, with and without enzyme was determined. After assay incubation at rt, the reaction was stopped and residual ATP determined by addition of an equal volume of a commercial ATP bioluminescence kit (Perkin Elmer EasyLite) according to the manufacturer's instructions, and detected using a AnalystGT luminometer.", "values": [
      {"smiles": "C[C@H](Nc1ncnc(N)c1C#N)c1nc2c(F)cc(F)cc2n1-c1cc(F)cc(F)c1", "note": "[4-amino-6-(((1S)-1-(1-(3,5-difluorophenyl)-4,6-difluoro-1H-benzimidazol-2-yl)ethyl)amino)-5-pyrimidinecarbonitrile]", "Ki": "2.6 nM"},
      {"smiles": "C[C@H](Nc1ncnc(N)c1C#N)c1nc2c(F)cccc2n1-c1cc(F)cc(F)c1", "note": "[4-amino-6-(((1S)-1-(1-(3,5-difluorophenyl)-4-fluoro-1H-benzimidazol-2-yl)ethyl)amino)-5-pyrimidinecarbonitrile]", "Ki": "6.4 nM and 2.1 nM"},
      {"smiles": "C[C@H](Nc1ncnc(N)c1C#N)c1nc2cccc(F)c2n1-c1cc(F)cc(F)c1", "note": "[4-amino-6-(((1S)-1-(1-(3,5-difluorophenyl)-7-fluoro-1H-benzimidazol-2-yl)ethyl)amino)-5-pyrimidinecarbonitrile]", "Ki": "3.7 nM"},
      {"smiles": "C[C@H](Nc1ncnc(N)c1C#N)c1nc2ccc(F)cc2n1-c1cccc(C#N)c1", "note": "[4-amino-6-(((1S)-1-(1-(3-cyanophenyl)-6-fluoro-1H-benzimidazol-2-yl)ethyl)amino)-5-pyrimidinecarbonitrile]", "Ki": "18.8 nM"},
      {"smiles": "C[C@H](Nc1ncnc(N)c1C#N)c1nc2c(S(C)(=O)=O)cccc2n1Cc1ccc(F)cc1", "note": "[4-amino-6-(((1S)-1-(1-(4-fluorobenzyl)-4-(methylsulfonyl)-1H-benzimidazol-2-yl)ethyl)amino)-5-pyrimidinecarbonitrile]", "Ki": "2410 nM"},
      {"smiles": "C[C@H](Nc1ncnc(N)c1C#N)c1nc2cccc(S(C)(=O)=O)c2n1Cc1ccc(F)cc1", "note": "[4-amino-6-(((1S)-1-(1-(4-fluorobenzyl)-7-(methylsulfonyl)-1H-benzimidazol-2-yl)ethyl)amino)-5-pyrimidinecarbonitrile]", "Ki": "26.8 nM"},
      {"smiles": "CC[C@H](Nc1ncnc(N)c1C#N)c1nc2cccc(S(C)(=O)=O)c2n1Cc1ccc(F)cc1", "note": "[4-amino-6-(((1S)-1-(1-(4-fluorobenzyl)-7-(methylsulfonyl)-1H-benzimidazol-2-yl)propyl)amino)-5-pyrimidinecarbonitrile]", "Ki": "27.4 nM"},
      {"smiles": "CC[C@H](Nc1ncnc(N)c1C#N)c1nc2cccc(C(F)(F)F)c2n1Cc1ccc(F)cc1", "note": "[4-amino-6-(((1S)-1-(1-(4-fluorobenzyl)-7-(trifluoromethyl)-1H-benzimidazol-2-yl)propyl)amino)-5-pyrimidinecarbonitrile]", "Ki": "464 nM"},
      {"smiles": "C[C@H](Nc1ncnc(N)c1C#N)c1nc2cc(F)ccc2n1CC1CC1", "note": "[4-amino-6-(((1S)-1-(1-(cyclopropylmethyl)-5-fluoro-1H-benzimidazol-2-yl)ethyl)amino)-5-pyrimidinecarbonitrile]", "Ki": "6 nM and 25.8 nM"},
      {"smiles": "C[C@H](Nc1ncnc(N)c1C#N)c1nc2ccc(F)cc2n1CC1CC1", "note": "[4-amino-6-(((1S)-1-(1-(cyclopropylmethyl)-6-fluoro-1H-benzimidazol-2-yl)ethyl)amino)-5-pyrimidinecarbonitrile]", "Ki": "3.1 nM"},
      {"smiles": "C[C@H](Nc1ncnc(N)c1C#N)c1nc2cccc(S(C)(=O)=O)c2n1CC1CC1", "note": "[4-amino-6-(((1S)-1-(1-(cyclopropylmethyl)-7-(methylsulfonyl)-1H-benzimidazol-2-yl)ethyl)amino)-5-pyrimidinecarbonitrile]", "Ki": "2.2 nM"},
      {"smiles": "CC[C@H](Nc1ncnc(N)c1C#N)c1nc2cccc(S(C)(=O)=O)c2n1CC1CC1", "note": "[4-amino-6-(((1S)-1-(1-(cyclopropylmethyl)-7-(methylsulfonyl)-1H-benzimidazol-2-yl)propyl)amino)-5-pyrimidinecarbonitrile]", "Ki": "2.19 nM"},
      {"smiles": "CC[C@H](Nc1ncnc(N)c1C#N)c1nc2cccc(C(F)(F)F)c2n1CC1CC1", "note": "[4-amino-6-(((1S)-1-(1-(cyclopropylmethyl)-7-(trifluoromethyl)-1H-benzimidazol-2-yl)propyl)amino)-5-pyrimidinecarbonitrile]", "Ki": "53.1 nM"},
      {"smiles": "C[C@H](Nc1ncnc(N)c1C#N)c1nc2c(S(C)(=O)=O)cccc2n1C1CCCC1", "note": "[4-amino-6-(((1S)-1-(1-cyclopentyl-4-(methylsulfonyl)-1H-benzimidazol-2-yl)ethyl)amino)-5-pyrimidinecarbonitrile]", "Ki": "1440 nM"},
      {"smiles": "C[C@H](Nc1ncnc(N)c1C#N)c1nc2cccc(S(C)(=O)=O)c2n1C1CC1", "note": "[4-amino-6-(((1S)-1-(1-cyclopropyl-7-(methylsulfonyl)-1H-benzimidazol-2-yl)ethyl)amino)-5-pyrimidinecarbonitrile]", "Ki": "2.83 nM"},
      {"smiles": "C[C@H](Nc1ncnc(N)c1C#N)c1nc2cccc(F)c2n1C1CC1", "note": "[4-amino-6-(((1S)-1-(1-cyclopropyl-7-fluoro-1H-benzimidazol-2-yl)ethyl)amino)-5-pyrimidinecarbonitrile]", "Ki": "12.2 nM"},
      {"smiles": "C[C@H](Nc1ncnc(N)c1C#N)c1nc2cnccn2c1-c1ccccn1", "note": "[4-amino-6-(((1S)-1-(3-(2-pyridinyl)imidazo[1,2-a]pyrazin-2-yl)ethyl)amino)-5-pyrimidinecarbonitrile]", "Ki": "2160 nM"},
      {"smiles": "C[C@H](Nc1ncnc(N)c1C#N)c1nc2ncccn2c1-c1ccccn1", "note": "[4-amino-6-(((1S)-1-(3-(2-pyridinyl)imidazo[1,2-a]pyrimidin-2-yl)ethyl)amino)-5-pyrimidinecarbonitrile]", "Ki": "1580 nM"},
      {"smiles": "C[C@H](Nc1ncnc(N)c1C#N)c1nc2cccnn2c1-c1ccccn1", "note": "[4-amino-6-(((1S)-1-(3-(2-pyridinyl)imidazo[1,2-b]pyridazin-2-yl)ethyl)amino)-5-pyrimidinecarbonitrile]", "Ki": "2010 nM"},
      {"smiles": "C[C@H](Nc1ncnc(N)c1C#N)c1nc2cccnc2n1-c1cc(F)cc(F)c1", "note": "[4-amino-6-(((1S)-1-(3-(3,5-difluorophenyl)-3H-imidazo[4,5-b]pyridin-2-yl)ethyl)amino)-5-pyrimidinecarbonitrile]", "Ki": "138 nM"},
      {"smiles": "C[C@H](Nc1ncnc(N)c1C#N)c1nc2ccc(F)cn2c1-c1cc(F)cc(Cl)c1", "note": "[4-amino-6-(((1S)-1-(3-(3-chloro-5-fluorophenyl)-6-fluoroimidazo[1,2-a]pyridin-2-yl)ethyl)amino)-5-pyrimidinecarbonitrile]", "Ki": "8.8 nM"},
      {"smiles": "C[C@H](Nc1ncnc(N)c1C#N)c1nc2ccc(F)cn2c1-c1ccc(Cl)cc1", "note": "[4-amino-6-(((1S)-1-(3-(4-chlorophenyl)-6-fluoroimidazo[1,2-a]pyridin-2-yl)ethyl)amino)-5-pyrimidinecarbonitrile]", "Ki": "25.1 nM"},
      {"smiles": "C[C@H](Nc1ncnc(N)c1C#N)c1nc2ccccn2c1-c1ccc(Cl)cc1", "note": "[4-amino-6-(((1S)-1-(3-(4-chlorophenyl)imidazo[1,2-a]pyridin-2-yl)ethyl)amino)-5-pyrimidinecarbonitrile]", "Ki": "74 nM"},
      {"smiles": "C[C@H](Nc1ncnc(N)c1C#N)c1nc2c(F)cc(F)cc2n1-c1cccnc1", "note": "[4-amino-6-(((1S)-1-(4,6-difluoro-1-(3-pyridinyl)-1H-benzimidazol-2-yl)ethyl)amino)-5-pyrimidinecarbonitrile]", "Ki": "6.74 nM"},
      {"smiles": "C[C@H](Nc1ncnc(N)c1C#N)c1nc2c(F)cccc2n1-c1cncc(F)c1", "note": "[4-amino-6-(((1S)-1-(4-fluoro-1-(5-fluoro-3-pyridinyl)-1H-benzimidazol-2-yl)ethyl)amino)-5-pyrimidinecarbonitrile]", "Ki": "47 nM"},
      {"smiles": "C[C@H](Nc1ncnc(N)c1C#N)c1nc2cc(F)c(F)cc2n1-c1cncc(F)c1", "note": "[4-amino-6-(((1S)-1-(5,6-difluoro-1-(5-fluoro-3-pyridinyl)-1H-benzimidazol-2-yl)ethyl)amino)-5-pyrimidinecarbonitrile]", "Ki": "57.5 nM"},
      {"smiles": "C[C@H](Nc1ncnc(N)c1C#N)c1nc2cccc(C(=O)N3CCN(C)CC3)n2c1-c1ccccc1", "note": "[4-amino-6-(((1S)-1-(5-((4-methyl-1-piperazinyl)carbonyl)-3-phenylimidazo[1,2-a]pyridin-2-yl)ethyl)amino)-5-pyrimidinecarbonitrile]", "Ki": "11.8 nM"},
      {"smiles": "CSc1cccc(-n2c([C@H](C)Nc3ncnc(N)c3C#N)nc3cc(F)ccc32)c1", "note": "[4-amino-6-(((1S)-1-(5-fluoro-1-(3-(methylsulfanyl)phenyl)-1H-benzimidazol-2-yl)ethyl)amino)-5-pyrimidinecarbonitrile]", "Ki": "44.1 nM"},
      {"smiles": "C[C@H](Nc1ncnc(N)c1C#N)c1nc2cc(F)ccc2n1-c1cncc(F)c1", "note": "[4-amino-6-(((1S)-1-(5-fluoro-1-(5-fluoro-3-pyridinyl)-1H-benzimidazol-2-yl)ethyl)amino)-5-pyrimidinecarbonitrile]", "Ki": "96.4 nM"},
      {"smiles": "C[C@H](Nc1ncnc(N)c1C#N)c1nc2cc(F)ccc2n1-c1ccccc1", "note": "[4-amino-6-(((1S)-1-(5-fluoro-1-phenyl-1H-benzimidazol-2-yl)ethyl)amino)-5-pyrimidinecarbonitrile]", "Ki": "1.7 nM"},
      {"smiles": "C[C@H](Nc1ncnc(N)c1C#N)c1nc2ccc(Cl)cc2n1-c1cc(F)cc(F)c1", "note": "[4-amino-6-(((1S)-1-(6-chloro-1-(3,5-difluorophenyl)-1H-benzimidazol-2-yl)ethyl)amino)-5-pyrimidinecarbonitrile]", "Ki": "2.7 nM"},
      {"smiles": "C[C@H](Nc1ncnc(N)c1C#N)c1nc2ccc(F)cc2n1-c1cccc(-c2ccccn2)c1", "note": "[4-amino-6-(((1S)-1-(6-fluoro-1-(3-(2-pyridinyl)phenyl)-1H-benzimidazol-2-yl)ethyl)amino)-5-pyrimidinecarbonitrile]", "Ki": "8.9 nM and 3.8 nM"},
      {"smiles": "C[C@H](Nc1ncnc(N)c1C#N)c1nc2ccc(F)cc2n1-c1cccc(F)n1", "note": "[4-amino-6-(((1S)-1-(6-fluoro-1-(6-fluoro-2-pyridinyl)-1H-benzimidazol-2-yl)ethyl)amino)-5-pyrimidinecarbonitrile]", "Ki": "8.89 nM"},
      {"smiles": "C[C@H](Nc1ncnc(N)c1C#N)c1nc2cccc(S(C)(=O)=O)c2[nH]1", "note": "[4-amino-6-(((1S)-1-(7-(methylsulfonyl)-1H-benzimidazol-2-yl)ethyl)amino)-5-pyrimidinecarbonitrile]", "Ki": "45.5 nM"}
    ]}
  ]
}
